Assay results taken from PMC12045974, “T cell toxicity induced by tigecycline binding to the mitochondrial ribosome” (Nature Communications, 2025).
Several values for one entry are separate records, joined by “and”; a condition that tells them apart may be missing. Identical values can stand only once. Like-named read-outs stand apart in the source and are kept apart here.

Columns and labels:
PBMCs = assay: Cell viability assay (CCK-8), PBMCs; type: cell-based, human; conditions: 72 h, PBMCs; for cell vialibity normalized to Vehicle (DMSO): in % (unit assumed)
Description: Buffy coats were ordered from anonymous blood donors at […]. […] Cells were seeded in 96-well plates ranging from 2000 to 15,000 cells per well depending on different cell lines and treated with antibiotics in serial dilutions for 72 h (120 h for the preliminary assays) in a humidified incubator (37 °C, 5% CO2) in 100 μl medium (DMEM with 10% FBS, 2.05 mM L-glutamine (Sigma) for Hek293 and Hela; RPMI-1640 with 10% FBS, 2.05 mM L-glutamine (Sigma), and 55 μM 2-ME (Gibco) for Jurkat T cells and PBMCs). Based on preliminary tests, the number of cells per well was optimized to 2000 for Hela and Hek293, 6000 for Jurkat T cells, and 15,000 for PBMCs. The stocks of antibiotics were prepared by dissolving in DMSO. As control, the same amount of DMSO was added to the non-treated groups. Serial drug dilutions were prepared in the corresponding medium to provide a total of 9 concentrations up to 300 μM for tetracyclines and up to 900 μM for additional bacterial protein synthesis inhibitors. After drug treatment, 10% CCK-8 (Cell Counting Kit-8, Sigma Aldrich) (10 μl per well) of the total volume was added to the cells and incubated for 1-4 h depending on cell lines (1 h for Hela and Hek293; 3 h for Jurkat T cells; 4 h for PBMCs) before the evaluation of the effect of antibiotics on cell viability. […] Results were visually confirmed under the light microscope. Each treatment was performed in technical repeats. Dose-response curves were plotted, mean ± SEM was shown, and half maximal inhibitory concentration (IC50) values were calculated in GraphPad Prism.

Jurkat T cells = assay: Cell viability assay (CCK-8), Jurkat T cells; type: cell-based, human; conditions: Jurkat, 72 h, Fig. 1A, in % (unit assumed)
Description: Cells were seeded in 96-well plates ranging from 2000 to 15,000 cells per well depending on different cell lines and treated with antibiotics in serial dilutions for 72 h (120 h for the preliminary assays) in a humidified incubator (37 °C, 5% CO2) in 100 μl medium (DMEM with 10% FBS, 2.05 mM L-glutamine (Sigma) for Hek293 and Hela; RPMI-1640 with 10% FBS, 2.05 mM L-glutamine (Sigma), and 55 μM 2-ME (Gibco) for Jurkat T cells and PBMCs). Based on preliminary tests, the number of cells per well was optimized to 2000 for Hela and Hek293, 6000 for Jurkat T cells, and 15,000 for PBMCs. The stocks of antibiotics were prepared by dissolving in DMSO. As control, the same amount of DMSO was added to the non-treated groups. Serial drug dilutions were prepared in the corresponding medium to provide a total of 9 concentrations up to 300 μM for tetracyclines and up to 900 μM for additional bacterial protein synthesis inhibitors. After drug treatment, 10% CCK-8 (Cell Counting Kit-8, Sigma Aldrich) (10 μl per well) of the total volume was added to the cells and incubated for 1–4 h depending on cell lines (1 h for Hela and Hek293; 3 h for Jurkat T cells; 4 h for PBMCs) before the evaluation of the effect of antibiotics on cell viability. […] Results were visually confirmed under the light microscope. Each treatment was performed in technical repeats. Dose-response curves were plotted, mean ± SEM was shown, and half maximal inhibitory concentration (IC50) values were calculated in GraphPad Prism.

[1] = Homo sapiens, PBMC, dose 1.23457 μM, Fig. 1B, read-out: cell vialibity normalized to Vehicle (DMSO)
[2] = Homo sapiens, PBMC, dose 11.1111 μM, Fig. 1B, read-out: cell vialibity normalized to Vehicle (DMSO)
[3] = Homo sapiens, PBMC, dose 0.411523 μM, Fig. 1B, read-out: cell vialibity normalized to Vehicle (DMSO)
[4] = Homo sapiens, PBMC, dose 300 μM, Fig. 1B, read-out: cell vialibity normalized to Vehicle (DMSO)
[5] = Homo sapiens, PBMC, dose 0.0457247 μM, Fig. 1A, read-out: cell vialibity normalized to Vehicle (DMSO)
[6] = Homo sapiens, PBMC, dose 0.411523 μM, Fig. 1A, read-out: cell vialibity normalized to Vehicle (DMSO)
[7] = Homo sapiens, PBMC, dose 100 μM, Fig. 1A, read-out: cell vialibity normalized to Vehicle (DMSO)

Compound	viability at 300 µM (PBMCs; [4]) [%]	cell vialibity normalized to Vehicle (DMSO) (Jurkat T cells; dose 0.0457247 μM)	cell vialibity normalized to Vehicle (DMSO) (Jurkat T cells; dose 0.137174 μM)	cell vialibity normalized to Vehicle (DMSO) (Jurkat T cells; dose 0.411523 μM)	cell vialibity normalized to Vehicle (DMSO) (Jurkat T cells; dose 1.23457 μM)	cell vialibity normalized to Vehicle (DMSO) (Jurkat T cells; dose 3.7037 μM)	cell vialibity normalized to Vehicle (DMSO) (Jurkat T cells; dose 11.1111 μM)	cell vialibity normalized to Vehicle (DMSO) (Jurkat T cells; dose 33.3333 μM)	cell vialibity normalized to Vehicle (DMSO) (Jurkat T cells; dose 100 μM)	cell vialibity normalized to Vehicle (DMSO) (Jurkat T cells; dose 300 μM)	viability at 0.0457247 µM (PBMCs; [5]) [%]	viability at 100 µM (PBMCs; [7]) [%]	also measured
CC[C@H]1OC(=O)[C@H](C)[C@@H](O[C@H]2C[C@@](C)(OC)[C@@H](O)[C@H](C)O2)[C@H](C)[C@@H](O[C@@H]2O[C@H](C)C[C@H](N(C)C)[C@H]2O)[C@](C)(O)C[C@@H](C)CN(C)[C@H](C)[C@@H](O)[C@]1(C)O [Azithromycin, azithromycin]	–	–	–	–	–	–	–	–	–	–	–	–	viability at 1.23457 µM (PBMCs; [1]): 91%; viability at 11.1111 µM (PBMCs; [2]): 82%
CCC[C@@H]1C[C@@H](C(=O)N[C@@H]([C@H]2O[C@H](SC)[C@H](O)[C@@H](O)[C@H]2O)[C@H](C)Cl)N(C)C1 [Clindamycin, clindamycin]	63	–	–	–	–	–	–	–	–	–	–	–	viability at 0.137174 µM (PBMCs; Homo sapiens, PBMC, dose 0.137174 μM, Fig. 1B, read-out: cell vialibity normalized to Vehicle (DMSO)): 97%; viability at 0.411523 µM (PBMCs; [3]): 95.8%; viability at 1.23457 µM (PBMCs; [1]): 92.3%; viability at 11.1111 µM (PBMCs; [2]): 102%; viability at 100 µM (PBMCs; Homo sapiens, PBMC, dose 100 μM, Fig. 1B, read-out: cell vialibity normalized to Vehicle (DMSO)): 94.6%
CC(=O)NC[C@H]1CN(c2ccc(N3CCOCC3)c(F)c2)C(=O)O1 [Linezolid, linezolid]	24.4	–	–	–	–	–	–	–	–	–	–	–	–
C=C1c2cccc(O)c2C(=O)C2=C(O)[C@]3(O)C(=O)C(C(N)=O)=C(O)[C@@H](N(C)C)[C@@H]3[C@@H](O)[C@H]12 [Methacycline, methacycline]	–	104.711 and 102.732 and 106.75	102.378 and 109.807 and 118.32	103.32 and 108.822 and 104.75	108.031 and 101.209 and 106	100.628 and 106.046 and 105.75	118.035 and 121.182 and 107.162	32.5707 and 32.2436 and 34.2424	20.0538 and 20.6001 and 28.3196	11.2607 and 14.1961 and 17.0248	105	30	viability at 0.411523 µM (PBMCs; [6]): 102%
CN(C)c1ccc(O)c2c1C[C@H]1C[C@H]3[C@H](N(C)C)C(O)=C(C(N)=O)C(=O)[C@@]3(O)C(O)=C1C2=O [Minocycline, minocycline]	–	100.385 and 100.531 and 101.165	–	98.2906 and 97.4244 and 90.1654	99.8718 and 96.2387 and 90.2372	105.513 and 101.758 and 90.3163	49.6581 and 44.3173 and 49.0295	19.6154 and 18.6836 and 25.6578	12.3932 and 10.5887 and 15.9454	6.111 and 6.95 and 5.018	97.4	46.6	viability at 0.137174 µM (PBMCs; Homo sapiens, PBMC, dose 0.137174 μM, Fig. 1A, read-out: cell vialibity normalized to Vehicle (DMSO)): 98.5%; viability at 0.411523 µM (PBMCs; [6]): 100%; viability at 1.23457 µM (PBMCs; Homo sapiens, PBMC, dose 1.23457 μM, Fig. 1A, read-out: cell vialibity normalized to Vehicle (DMSO)): 95.2%; viability at 3.7037 µM (PBMCs; Homo sapiens, PBMC, dose 3.7037 μM, Fig. 1A, read-out: cell vialibity normalized to Vehicle (DMSO)): 91.6%; viability at 11.1111 µM (PBMCs; Homo sapiens, PBMC, dose 11.1111 μM, Fig. 1A, read-out: cell vialibity normalized to Vehicle (DMSO)): 87.6%; viability at 33.3333 µM (PBMCs; Homo sapiens, PBMC, dose 33.3333 μM, Fig. 1A, read-out: cell vialibity normalized to Vehicle (DMSO)): 81.2%
CN(C)[C@@H]1C(O)=C(C(N)=O)C(=O)[C@@]2(O)C(O)=C3C(=O)c4c(O)cccc4[C@@](C)(O)[C@H]3C[C@@H]12 [Tetracycline, tetracycline]	–	102.181 and 108.663 and 114.096	99.1611 and 103.998 and 102.471	100 and 102.207 and 96	99.3708 and 109.246 and 98.7059	100.377 and 106.955 and 130.118	115.478 and 121.824 and 122.353	–	13.3809 and 13.536 and 12.3529	–	96	42.5	viability at 300 µM (PBMCs; Homo sapiens, PBMC, dose 300 μM, Fig. 1A, read-out: cell vialibity normalized to Vehicle (DMSO)): 28.2%
C=C[C@]1(C)C[C@@H](OC(=O)CSCCN(CC)CC)[C@]2(C)[C@H](C)CC[C@]3(CCC(=O)[C@H]32)[C@@H](C)[C@@H]1O [Tiamulin, tiamulin]	7.89	–	–	–	–	–	–	–	–	–	–	–	viability at 0.411523 µM (PBMCs; [3]): 103%; viability at 900 µM (PBMCs; Homo sapiens, PBMC, dose 900 μM, Fig. 1B, read-out: cell vialibity normalized to Vehicle (DMSO)): 3.99%
medocycline	–	102.989 and 99.9557 and 109.669	102.725 and 107.699 and 114.702	103.253 and 102.434 and 102.384	99.4725 and 91.8142 and 98.8083	86.4176 and 91.8584 and 75.4404	52.967 and 57.0354 and 39.5078	13.8022 and 14.0708 and 21.114	9.495 and 9.425 and 18.7824	7.165 and 7.743 and 8.238	–	–	cell vialibity normalized to Vehicle (DMSO) (PBMCs; dose 0.0457247 μM, Fig. 1A): 99.3099 and 104.911 and 97.5874 and 111.701 and 85.5908; cell vialibity normalized to Vehicle (DMSO) (PBMCs; dose 0.137174 μM, Fig. 1A): 96.2044 and 113.924 and 98.007 and 101.337 and 91.5168; cell vialibity normalized to Vehicle (DMSO) (PBMCs; dose 0.411523 μM, Fig. 1A): 87.4466 and 108.341 and 104.406 and 103.147 and 93.157; cell vialibity normalized to Vehicle (DMSO) (PBMCs; dose 1.23457 μM, Fig. 1A): 87.9395 and 106.341 and 92.1504 and 97.7385 and 83.3333; cell vialibity normalized to Vehicle (DMSO) (PBMCs; dose 3.7037 μM, Fig. 1A): 96.5495 and 93.5206 and 91.1364 and 95.1622 and 83.8095; cell vialibity normalized to Vehicle (DMSO) (PBMCs; dose 11.1111 μM, Fig. 1A): 80.6934 and 86.1279 and 92.0804 and 88.6726 and 85.0088; cell vialibity normalized to Vehicle (DMSO) (PBMCs; dose 33.3333 μM, Fig. 1A): 52.5961 and 55.9883 and 48.1294 and 49.4985 and 42.8924; cell vialibity normalized to Vehicle (DMSO) (PBMCs; dose 100 μM, Fig. 1A): 27.933 and 27.6926 and 32.9196 and 27.237 and 25.2205; cell vialibity normalized to Vehicle (DMSO) (PBMCs; dose 300 μM, Fig. 1A): 19.208 and 32.8451 and 31.9056 and 30.1672 and 23.6508
